Experiment [1] concerns the target Melanocortin receptor 4 (Homo sapiens, UniProt P32245). Kind of experiment: inhibitors of MC4R cAMP signaling – cell-based, TR-FRET, biased antagonists, dose response (AID 602298).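 Further: antagonist potency against agonist-stimulated cAMP production.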 It counts as functional. In general terms: Time-resolved FRET reads energy transfer from a long-lived donor to a nearby acceptor.
The nature of experiment [2]: cAMP pathway inhibition in counterscreen cell line – TR-FRET cAMP detection, counter-screen for MC4R biased antagonist project, dose response (AID 602305).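 Further: U2OS cells stimulated with forskolin near its EC80 as the cAMP inducer; potency is for inhibition of forskolin-stimulated cAMP signaling.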 It counts as functional, cell-based.
Experiment [3] has as its target T1, Insulin-degrading enzyme (Homo sapiens, UniProt P14735).
T1 sequence (P14735 whole entry): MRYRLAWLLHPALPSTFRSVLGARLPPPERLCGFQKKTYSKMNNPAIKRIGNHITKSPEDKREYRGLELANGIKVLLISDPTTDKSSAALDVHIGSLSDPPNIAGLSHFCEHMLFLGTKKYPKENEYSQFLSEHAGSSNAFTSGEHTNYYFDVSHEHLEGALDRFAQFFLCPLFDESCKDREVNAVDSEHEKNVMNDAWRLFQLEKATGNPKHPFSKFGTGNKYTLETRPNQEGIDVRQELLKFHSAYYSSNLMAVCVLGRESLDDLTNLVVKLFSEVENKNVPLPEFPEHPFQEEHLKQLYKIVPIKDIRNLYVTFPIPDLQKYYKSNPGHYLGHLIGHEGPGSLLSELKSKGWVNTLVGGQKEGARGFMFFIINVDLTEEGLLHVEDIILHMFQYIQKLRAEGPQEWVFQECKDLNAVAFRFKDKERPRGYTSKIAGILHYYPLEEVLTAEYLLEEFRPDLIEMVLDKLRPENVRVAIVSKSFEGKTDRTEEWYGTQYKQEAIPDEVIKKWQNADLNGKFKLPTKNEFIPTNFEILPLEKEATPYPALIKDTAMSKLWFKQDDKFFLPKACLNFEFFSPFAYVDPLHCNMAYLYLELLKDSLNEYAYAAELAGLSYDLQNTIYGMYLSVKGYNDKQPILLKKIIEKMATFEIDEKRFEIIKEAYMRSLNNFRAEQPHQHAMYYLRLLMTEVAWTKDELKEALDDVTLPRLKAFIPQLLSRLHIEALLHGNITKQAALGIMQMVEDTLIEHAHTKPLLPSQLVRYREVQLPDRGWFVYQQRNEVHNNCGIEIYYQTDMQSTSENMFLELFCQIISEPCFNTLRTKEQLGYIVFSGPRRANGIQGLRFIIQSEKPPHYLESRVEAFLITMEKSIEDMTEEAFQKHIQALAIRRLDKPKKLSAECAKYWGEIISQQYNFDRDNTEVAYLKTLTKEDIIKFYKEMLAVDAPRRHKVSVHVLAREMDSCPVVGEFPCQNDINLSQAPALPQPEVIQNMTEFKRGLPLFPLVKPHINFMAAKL
As to the kind of experiment: recombinant IDE activation, cell-free – biochemical, fluorescence polarization, counter-screen for IDE activator project, dose response (AID 588681).

The target in experiment [4] is T1, Insulin-degrading enzyme. Kind of experiment: cellular IDE activation of Abeta substrate cleavage – fluorescence polarization, HEK cells, dose response (AID 588439). It counts as functional, cell-based. Background: Polarisation of emitted light reports the rotation of a fluorescent probe.
The test system of experiment [5] is HEK293. Kind of experiment: optical interference in Abeta FP readout, dose response, artefact control for IDE activator project, biochemical, fluorescence polarization (AID 588442). The conditions noted are these: Homo sapiens. It counts as functional, cell-based.
Experiment [6] has as its system HEK293. Kind of experiment: membrane integrity loss in HEK cells – cell-based, fluorescence, cytotoxicity control for IDE activator project, dose response (AID 588440).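 Further: cytotoxicity by LDH release measuring loss of membrane integrity.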 It counts as functional. The note with it: Homo sapiens.
In experiment [7] the target is T2, Sentrin-specific protease 8 (Homo sapiens, UniProt Q96LD8).
T2 sequence (Q96LD8 whole entry): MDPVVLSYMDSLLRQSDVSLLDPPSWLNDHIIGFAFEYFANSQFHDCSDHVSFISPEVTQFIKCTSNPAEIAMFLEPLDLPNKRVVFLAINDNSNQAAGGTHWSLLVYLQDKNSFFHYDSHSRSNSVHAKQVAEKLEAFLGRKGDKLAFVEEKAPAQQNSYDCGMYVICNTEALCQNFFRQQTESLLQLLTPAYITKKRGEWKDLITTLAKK
Kind of experiment: inhibition of sentrin protease 8 – biochemical, luminescence, set 2, SAR follow-up (AID 588601). It counts as functional.

In experiment [8] the target is T3, Caspase-3 (Homo sapiens, UniProt P42574).
T3 sequence (P42574 whole entry): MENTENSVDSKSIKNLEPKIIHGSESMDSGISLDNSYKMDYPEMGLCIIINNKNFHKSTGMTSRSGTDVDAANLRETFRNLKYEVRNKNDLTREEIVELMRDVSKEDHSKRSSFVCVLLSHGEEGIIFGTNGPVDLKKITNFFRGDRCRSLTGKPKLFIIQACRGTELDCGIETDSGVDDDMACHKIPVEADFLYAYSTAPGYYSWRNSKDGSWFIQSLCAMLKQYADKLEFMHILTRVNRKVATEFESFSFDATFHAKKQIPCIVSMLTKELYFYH
Kind of experiment: inhibition of recombinant caspase-3 activity – biochemical, luminescence, set 2, selectivity assay for SENP protease inhibitor project, SAR follow-up (AID 588599). It counts as functional.

Experiment [9] has as its target T4, Sentrin-specific protease 7 (Homo sapiens, UniProt Q9BQF6).
T4 sequence (Q9BQF6 whole entry): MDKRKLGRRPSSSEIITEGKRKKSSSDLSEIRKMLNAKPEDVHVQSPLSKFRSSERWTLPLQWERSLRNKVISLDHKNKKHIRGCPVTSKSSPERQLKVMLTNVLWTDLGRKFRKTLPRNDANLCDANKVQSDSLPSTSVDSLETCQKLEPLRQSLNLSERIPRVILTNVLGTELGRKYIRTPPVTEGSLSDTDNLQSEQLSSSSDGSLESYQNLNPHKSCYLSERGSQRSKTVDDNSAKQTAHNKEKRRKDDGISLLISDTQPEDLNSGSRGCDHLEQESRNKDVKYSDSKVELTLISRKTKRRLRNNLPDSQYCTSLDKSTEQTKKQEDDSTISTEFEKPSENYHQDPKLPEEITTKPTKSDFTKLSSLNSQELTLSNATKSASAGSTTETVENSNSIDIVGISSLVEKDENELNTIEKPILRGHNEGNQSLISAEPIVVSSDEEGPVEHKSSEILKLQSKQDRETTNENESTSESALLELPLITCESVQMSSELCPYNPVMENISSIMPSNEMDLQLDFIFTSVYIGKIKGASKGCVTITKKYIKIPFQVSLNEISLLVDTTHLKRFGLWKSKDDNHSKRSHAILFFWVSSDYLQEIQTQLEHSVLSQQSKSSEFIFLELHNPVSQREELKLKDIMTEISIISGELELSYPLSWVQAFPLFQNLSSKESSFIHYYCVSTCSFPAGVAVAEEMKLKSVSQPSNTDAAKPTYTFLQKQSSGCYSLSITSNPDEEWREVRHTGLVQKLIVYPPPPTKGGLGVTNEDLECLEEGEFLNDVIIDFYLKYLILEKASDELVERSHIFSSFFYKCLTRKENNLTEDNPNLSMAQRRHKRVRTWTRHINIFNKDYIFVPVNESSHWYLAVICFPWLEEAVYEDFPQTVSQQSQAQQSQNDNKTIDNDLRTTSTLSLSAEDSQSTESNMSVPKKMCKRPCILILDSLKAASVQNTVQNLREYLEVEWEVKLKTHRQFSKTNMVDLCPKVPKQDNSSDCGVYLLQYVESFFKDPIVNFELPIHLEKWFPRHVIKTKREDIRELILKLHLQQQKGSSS
As to the kind of experiment: inhibition of human SENP7 cleavage activity – biochemical, luminescence, set 2, SAR follow-up (AID 588600). It counts as functional.

Experiment [10] concerns the target T5, Sentrin-specific protease 6 (Homo sapiens, UniProt Q9GZR1).
T5 sequence (Q9GZR1 whole entry): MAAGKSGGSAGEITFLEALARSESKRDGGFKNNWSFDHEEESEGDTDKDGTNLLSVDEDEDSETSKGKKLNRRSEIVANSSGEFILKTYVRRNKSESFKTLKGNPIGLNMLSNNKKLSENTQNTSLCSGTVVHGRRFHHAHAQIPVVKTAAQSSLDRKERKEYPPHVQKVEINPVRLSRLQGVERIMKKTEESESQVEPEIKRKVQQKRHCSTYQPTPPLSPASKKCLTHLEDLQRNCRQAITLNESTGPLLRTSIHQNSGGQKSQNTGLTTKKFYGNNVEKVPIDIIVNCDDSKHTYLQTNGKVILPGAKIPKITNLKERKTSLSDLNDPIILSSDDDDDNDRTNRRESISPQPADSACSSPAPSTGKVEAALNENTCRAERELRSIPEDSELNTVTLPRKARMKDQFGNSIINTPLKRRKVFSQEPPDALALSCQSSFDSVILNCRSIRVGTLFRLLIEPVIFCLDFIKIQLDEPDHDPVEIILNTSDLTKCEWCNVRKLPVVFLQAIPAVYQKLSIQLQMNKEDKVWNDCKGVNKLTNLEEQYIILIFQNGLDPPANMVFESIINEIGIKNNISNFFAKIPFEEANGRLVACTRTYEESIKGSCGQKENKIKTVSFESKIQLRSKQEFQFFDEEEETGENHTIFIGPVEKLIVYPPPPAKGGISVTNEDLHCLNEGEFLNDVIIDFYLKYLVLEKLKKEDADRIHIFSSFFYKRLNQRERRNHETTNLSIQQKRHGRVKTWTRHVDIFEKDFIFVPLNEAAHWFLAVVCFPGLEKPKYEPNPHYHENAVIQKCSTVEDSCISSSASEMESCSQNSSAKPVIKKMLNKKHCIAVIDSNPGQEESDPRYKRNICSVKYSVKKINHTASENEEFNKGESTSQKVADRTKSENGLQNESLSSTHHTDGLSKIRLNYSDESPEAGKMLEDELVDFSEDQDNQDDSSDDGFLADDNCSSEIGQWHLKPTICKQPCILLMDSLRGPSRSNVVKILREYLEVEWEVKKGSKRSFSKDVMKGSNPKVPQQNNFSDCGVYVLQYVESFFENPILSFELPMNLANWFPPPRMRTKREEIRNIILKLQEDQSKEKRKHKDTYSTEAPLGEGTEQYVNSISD
As to the kind of experiment: inhibition of human SENP6 catalytic domain – biochemical, luminescence, set 2, SAR follow-up (AID 588598). It counts as functional.

In experiment [11] the target is T6, Aurora kinase A (Homo sapiens, UniProt O14965).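 Further: value from the Navigating the Kinome kinase panel profiling, panel entry STK6.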
T6 sequence (O14965 whole entry): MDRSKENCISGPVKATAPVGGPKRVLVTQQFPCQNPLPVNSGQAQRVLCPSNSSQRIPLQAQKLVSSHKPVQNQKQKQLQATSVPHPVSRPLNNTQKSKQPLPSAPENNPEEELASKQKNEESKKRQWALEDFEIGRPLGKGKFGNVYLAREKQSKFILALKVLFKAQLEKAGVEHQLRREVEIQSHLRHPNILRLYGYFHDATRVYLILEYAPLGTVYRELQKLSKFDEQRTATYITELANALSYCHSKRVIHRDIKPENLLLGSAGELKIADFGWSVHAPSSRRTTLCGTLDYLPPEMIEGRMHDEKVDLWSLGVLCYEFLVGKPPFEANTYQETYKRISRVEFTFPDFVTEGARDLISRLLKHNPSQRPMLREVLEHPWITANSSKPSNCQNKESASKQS
It counts as functional.

Experiment [12] has as its target Aurora kinase B (Homo sapiens, UniProt Q96GD4). It counts as functional.
In experiment [13] the target is ALK tyrosine kinase receptor (Homo sapiens, UniProt Q9UM73). It counts as functional.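 Further: ALK tested as one member of a kinase panel screen.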
Sequence of ALK tyrosine kinase receptor (Q9UM73 whole entry): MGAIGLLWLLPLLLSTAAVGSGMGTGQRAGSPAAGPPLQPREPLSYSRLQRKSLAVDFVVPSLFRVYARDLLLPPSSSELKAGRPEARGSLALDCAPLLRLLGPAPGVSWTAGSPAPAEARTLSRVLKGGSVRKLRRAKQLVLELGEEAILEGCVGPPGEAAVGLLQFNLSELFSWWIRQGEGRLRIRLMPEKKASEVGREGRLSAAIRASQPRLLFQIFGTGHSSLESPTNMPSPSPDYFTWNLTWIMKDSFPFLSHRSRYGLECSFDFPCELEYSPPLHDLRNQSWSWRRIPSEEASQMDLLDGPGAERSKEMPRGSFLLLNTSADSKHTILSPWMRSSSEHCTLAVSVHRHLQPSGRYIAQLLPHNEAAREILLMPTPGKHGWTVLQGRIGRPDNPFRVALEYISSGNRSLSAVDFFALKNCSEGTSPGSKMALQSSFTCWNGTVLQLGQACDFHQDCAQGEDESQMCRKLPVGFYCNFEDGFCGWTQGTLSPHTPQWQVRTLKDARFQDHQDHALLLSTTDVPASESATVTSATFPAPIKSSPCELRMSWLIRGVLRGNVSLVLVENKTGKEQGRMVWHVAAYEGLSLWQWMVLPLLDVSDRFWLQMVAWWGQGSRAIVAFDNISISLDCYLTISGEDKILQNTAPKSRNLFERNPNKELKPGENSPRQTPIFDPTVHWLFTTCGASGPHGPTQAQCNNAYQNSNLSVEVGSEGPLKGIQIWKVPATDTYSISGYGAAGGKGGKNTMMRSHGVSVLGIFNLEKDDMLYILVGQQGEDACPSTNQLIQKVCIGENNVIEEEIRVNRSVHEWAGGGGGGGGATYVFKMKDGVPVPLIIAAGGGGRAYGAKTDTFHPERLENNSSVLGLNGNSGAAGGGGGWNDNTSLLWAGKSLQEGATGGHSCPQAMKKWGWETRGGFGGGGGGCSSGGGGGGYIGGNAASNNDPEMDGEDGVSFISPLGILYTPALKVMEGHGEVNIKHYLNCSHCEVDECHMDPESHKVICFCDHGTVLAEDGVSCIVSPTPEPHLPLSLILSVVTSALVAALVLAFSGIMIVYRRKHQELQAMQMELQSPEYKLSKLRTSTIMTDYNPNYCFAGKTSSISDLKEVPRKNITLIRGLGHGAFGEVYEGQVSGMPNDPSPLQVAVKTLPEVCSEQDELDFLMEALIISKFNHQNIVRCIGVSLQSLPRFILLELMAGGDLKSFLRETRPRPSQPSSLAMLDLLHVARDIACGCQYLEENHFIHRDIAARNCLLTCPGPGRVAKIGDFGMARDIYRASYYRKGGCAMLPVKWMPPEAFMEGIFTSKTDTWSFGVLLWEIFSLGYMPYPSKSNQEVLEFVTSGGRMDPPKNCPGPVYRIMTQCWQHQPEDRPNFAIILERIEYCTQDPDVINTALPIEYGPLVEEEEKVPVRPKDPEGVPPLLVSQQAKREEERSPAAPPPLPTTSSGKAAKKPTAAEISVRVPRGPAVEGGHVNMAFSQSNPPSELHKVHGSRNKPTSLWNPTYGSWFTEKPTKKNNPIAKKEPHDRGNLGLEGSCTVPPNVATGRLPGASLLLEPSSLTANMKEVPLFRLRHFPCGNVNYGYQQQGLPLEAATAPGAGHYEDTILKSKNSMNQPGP
For experiment [14], the target named is Vascular endothelial growth factor receptor 2 (Homo sapiens, UniProt P35968). It counts as functional.
Sequence of Vascular endothelial growth factor receptor 2 (P35968 whole entry): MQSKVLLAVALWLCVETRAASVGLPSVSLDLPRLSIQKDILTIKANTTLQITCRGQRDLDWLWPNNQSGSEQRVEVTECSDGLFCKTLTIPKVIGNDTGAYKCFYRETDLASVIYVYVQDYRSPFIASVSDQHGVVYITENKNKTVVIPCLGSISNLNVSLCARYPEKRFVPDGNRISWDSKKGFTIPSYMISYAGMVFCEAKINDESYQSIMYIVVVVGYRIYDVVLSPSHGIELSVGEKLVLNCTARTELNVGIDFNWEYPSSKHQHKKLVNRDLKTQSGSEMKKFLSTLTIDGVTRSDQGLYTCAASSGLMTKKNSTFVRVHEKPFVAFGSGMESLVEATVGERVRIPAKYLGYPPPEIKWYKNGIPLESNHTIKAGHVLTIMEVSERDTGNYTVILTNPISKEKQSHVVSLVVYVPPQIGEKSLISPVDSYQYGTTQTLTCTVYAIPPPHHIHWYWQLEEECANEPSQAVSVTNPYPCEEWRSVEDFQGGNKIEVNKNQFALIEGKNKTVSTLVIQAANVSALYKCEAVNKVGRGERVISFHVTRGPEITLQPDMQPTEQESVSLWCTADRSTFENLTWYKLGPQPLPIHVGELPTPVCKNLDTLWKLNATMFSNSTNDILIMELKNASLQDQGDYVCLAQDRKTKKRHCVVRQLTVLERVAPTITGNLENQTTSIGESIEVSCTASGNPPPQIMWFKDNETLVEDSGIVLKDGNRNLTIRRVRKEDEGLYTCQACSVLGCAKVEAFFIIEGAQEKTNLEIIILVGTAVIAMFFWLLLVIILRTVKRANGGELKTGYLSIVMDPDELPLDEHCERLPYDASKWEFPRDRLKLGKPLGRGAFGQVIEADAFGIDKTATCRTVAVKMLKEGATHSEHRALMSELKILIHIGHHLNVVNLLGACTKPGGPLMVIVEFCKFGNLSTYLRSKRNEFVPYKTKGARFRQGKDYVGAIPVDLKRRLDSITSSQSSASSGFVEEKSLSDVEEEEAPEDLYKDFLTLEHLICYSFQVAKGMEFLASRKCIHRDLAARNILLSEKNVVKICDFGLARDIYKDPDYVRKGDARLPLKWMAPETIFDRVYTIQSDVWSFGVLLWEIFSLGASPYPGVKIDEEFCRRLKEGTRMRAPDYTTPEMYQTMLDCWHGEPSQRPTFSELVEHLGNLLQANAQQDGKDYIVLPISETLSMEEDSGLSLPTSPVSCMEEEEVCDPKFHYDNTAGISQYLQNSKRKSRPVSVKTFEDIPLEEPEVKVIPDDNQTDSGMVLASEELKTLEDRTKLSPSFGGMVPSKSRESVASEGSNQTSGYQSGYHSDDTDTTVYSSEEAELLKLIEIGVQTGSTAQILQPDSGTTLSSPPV

Activity calls are given as the source filed them.

A word on the IC50: it is the concentration needed to halve the response being measured. The term EC50 denotes the concentration needed to bring the measured effect to its halfway point. One may read the Ki as a dissociation constant, usually derived from enzyme kinetics or from competition with a known ligand.

Sequence of Aurora kinase B (Q96GD4 whole entry): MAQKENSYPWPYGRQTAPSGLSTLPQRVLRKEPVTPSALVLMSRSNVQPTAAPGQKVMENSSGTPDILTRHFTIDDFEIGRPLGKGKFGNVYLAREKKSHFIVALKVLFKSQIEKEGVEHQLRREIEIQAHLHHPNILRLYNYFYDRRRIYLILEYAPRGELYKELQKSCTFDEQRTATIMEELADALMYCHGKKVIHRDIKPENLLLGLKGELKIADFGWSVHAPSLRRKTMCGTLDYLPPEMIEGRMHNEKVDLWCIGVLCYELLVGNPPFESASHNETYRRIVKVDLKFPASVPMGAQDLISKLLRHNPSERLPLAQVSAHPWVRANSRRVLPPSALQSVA
Sequence of Melanocortin receptor 4 (P32245 whole entry): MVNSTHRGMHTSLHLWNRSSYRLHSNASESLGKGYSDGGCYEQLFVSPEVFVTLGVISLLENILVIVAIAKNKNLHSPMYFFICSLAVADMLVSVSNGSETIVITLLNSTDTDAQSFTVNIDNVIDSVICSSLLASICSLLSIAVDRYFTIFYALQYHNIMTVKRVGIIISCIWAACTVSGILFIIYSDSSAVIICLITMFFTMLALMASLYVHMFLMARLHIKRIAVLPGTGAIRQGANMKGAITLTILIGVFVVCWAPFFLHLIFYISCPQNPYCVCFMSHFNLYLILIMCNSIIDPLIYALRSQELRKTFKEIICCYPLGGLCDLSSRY

As to `NC(=O)c1ccc(SCC(=O)OCC(=O)NCC2CCCCC2)c([N+](=O)[O-])c1`, the IC50 in [1] and in experiment [2] was > 64.5 µM (inactive) in each case.

With `O=C1c2ccccc2C(=O)N1SC1CCCCC1`, the IC50 in [1] was 62 µM (inactive); in experiment [2], 63.7 µM (inactive).

`CC(OC(=O)CC1CC2CCC1C2)C(=O)Nc1cccc(S(=O)(=O)N2CCOCC2)c1` (stereo not given): the EC50 in experiment [3], in [4] and in experiment [5] was > 54.7 µM (inactive) in each case. Besides, the IC50 in [6] is > 89.2 µM (inactive).

Consider `CCCC(=O)Nc1ccc(C(=O)N/N=C/c2c(C)[nH]c3ccccc23)cc1`, for which the IC50 in experiment [7], in experiment [8], in experiment [9] and in [10] was > 99 µM (inactive) throughout.

Take `CC1(c2nnc(Cc3ccccc3)o2)CC(c2c(Cl)cccc2Cl)=NO1` (stereo not given): the EC50 is > 54.7 µM (inactive) in [3], > 54.7 µM (inactive) in experiment [4] and > 55.9 µM (inactive) in experiment [5]. Besides, the IC50 in [6] was > 89.2 µM (inactive).

With `Cc1ccccc1NC(=O)CCC(=O)N/N=C/c1c[nH]c2ccccc12`, the IC50 in experiment [7], in [8], in experiment [9] and in [10] was > 99 µM (inactive) each time.

On to `COCc1c(Br)c(C)nc(OCC(=O)N/N=C/c2c[nH]c3ccccc23)c1C#N`, for which the IC50 in experiment [7], in experiment [8], in experiment [9] and in experiment [10] was > 99 µM (inactive) throughout.

For the compound `CN(C)C(=O)C=Cc1ccc(-c2ccc(NC(=O)Nc3cccc(C(F)(F)F)c3)cc2)c2c(N)n[nH]c12`, the inhibition constant (Ki) in experiment [11] is 0.0398 µM (active); in [12] it was 0.00316 µM (active).

Turning to `NC(=O)c1cccc2nc(-c3ccc(-n4ccc(CN5CCCCC5)c4)cc3)[nH]c12`, the Ki in [11] was > 2 µM (inactive); in experiment [13] it was > 3.16 µM (inactive); in [14], 2 µM (active); in experiment [12], 0.0398 µM (active).

Source of the values: ChEMBL document CHEMBL1201862, “PubChem BioAssay data set” (2004).
